Assays:
[1] = following systemic administration, in mice; cited from earlier work
[2] = Pharmacokinetics of orally administered squalamine (ENT-01) in Stage 1; format: in vivo; settings: human, this study
Protocol: PK data were collected on the 10 patients enrolled in Stage 1 and 10 patients enrolled in Stage 2 to determine the extent of systemic absorption. In Stage 1, PK data were obtained at each visit, pre-medication, at 1, 2, 4, 8 and 24 hours (Table 10). In Stage 2, PK was measured on days 1 and 6 of the randomization period pre-medication, at 1, 2, 4 and 8 hours (Table 11).
The mean Cmax, Tmax and T1/2 and AUC of the squalamine ion following squalamine (ENT-01) oral dosing for Stage 1 patients. The PK analyses are only approximate, as the lower limit of the validated concentration range was 10 ng/ml; most of the measured concentrations fell below that value. The mean Cmax, Tmax and T1/2 and AUC of the squalamine ion following squalamine (ENT-01) oral dosing for Stage 2 patients. The PK analyses are only approximate, as the lower limit of the validated concentration range was 0.5 ng/ml.

mouse models of PD = settings: oral; mice with constipation due to overexpression of human αS (West et al, manuscript in preparation); cited from earlier work
[3] = system: IPANs (intrinsic primary afferent neuron); settings: isolated bowel segment, PD mouse model, luminal perfusion; cited from earlier work
[4] = system: patients with PD and constipation; assay: Adverse events, Stage 2; format: in vivo, human; settings: Stage 2, number of patients
Protocol: (§1) In Stage 2, 34 patients were evaluated.

patients with PD [5] = assay: Circadian rhythm of wrist skin temperature; format: in vivo, human; settings: for circadian rhythm of wrist skin temperature (IS, IV, RA, CFI): fixed dose vs baseline, 12 evaluable patients
Protocol: (6) I-Button Temperature Assessment. The I-Button is a small, rugged self-sufficient system that measures temperature and records the results in a protected memory section. The Thermochron I-Button DS1921H (Maxim Integrated, Dallas, Tex.) was used for skin temperature measurement. I-Buttons were programmed to sample every 10 mins., and attached to a double-sided cotton sport wrist band using Velcro, with the sensor face of the I-Button placed over the inside of the wrist, on the radial artery of the dominant hand. Subjects removed and replaced the data logger when necessary (i.e., to have a bath or shower). The value of skin temperature assessment in sleep research is that the endogenous skin warming resulting from increased skin blood flow is functionally linked to sleep propensity. From the collected data, the mesor, amplitude, acrophase (time of peak temperature), Rayleight test (an index of interdaily stability), mean waveforms are calculated.);
Circadian rhythm of skin temperature was evaluable in 12 patients (i.e., those who had recordings that extended from baseline through washout). Circadian system functionality was evaluated by continuously monitoring wrist skin temperature using a temperature sensor (Thermochron iButton DS1921H; Maxim, Dallas, Tex.) (Sarabia et al. 2008). A nonparametric analysis was performed for each participant to characterize DST as previously described (Sarabia et al. 2008; Ortiz-Tudela et al. 2010).
Briefly, this analysis includes the following parameters: (i) the inter-daily stability (the constancy of 24-hour rhythmic pattern over days, IS); (ii) intra-daily variability (rhythm fragmentation, IV); (iii) average of 10-minute intervals for the 10 hours with the minimum temperature (L10); (iv) average of 10-minute intervals for the 5 hours with the maximum temperature (M5) and the relative amplitude (RA), which was determined by the difference between M5 and L10, divided by the sum of both. Finally, the Circadian Function Index (CFI) was calculated by integrating IS, IV, and RA. […]

patients with PD [6] = assay: CNS / neurological symptoms in Stage 2 (UPDRS, MMSE, PDHQ, BDI-II); format: in vivo, human; settings: during treatment; patients with hallucinations (5) or delusions (1) at baseline
Description: Exploratory end-points, in addition to constipation, included for example, (i) depression assessed using the Beck Depression Inventory (BDI-II) (Steer et al. 2000) and Unified Parkinson's Disease Rating Scale (UPDRS); (ii) cognition assessed using the Mini Mental State Examination (MMSE) (Palsteia et al. 2018), Unified Parkinson's Disease Rating Scale (UPDRS), and Trail Making Test (TMT); (iii) sleep and REM-behavior disorder (RBD) using a daily sleep diary, I-Button Temperature Assessment, a REM sleep behavior disorder (RBD) questionnaire (RBDQ) (Stiasny-Kolster et al. 2007), and the UPDRS; (iv) hallucinations assessed using the PD hallucinations questionnaire (PDHQ) (Papapetropoulos et al. 2008), the UPDRS, and direct questioning; (v) fatigue using the Parkinson's Disease Fatigue Scale (PFS-16) and the UPDRS; (vi) motor functions using the UPDRS; and (vii) non-motor functions using the UPDRS.
Assessments were made at baseline and at the end of the fixed dose and washout periods. Circadian system status was evaluated by continuously monitoring wrist skin temperature (Thermochron iButton DS1921H; Maxim, Dallas) following published procedures (Sarabia et al. 2008). […]
CNS symptoms were evaluated at baseline and at the end of the fixed dose period and the wash-out period (Table 12). […]

[7] = system: patients with PD and constipation; assay: Phase 2 trial Stage 2 (daily dosing): bowel function, stool related indices; format: in vivo, human
Protocol: as §1
The primary efficacy outcome variable was whether or not a subject was a “success” or “failure”. This is an endpoint based on subject diary entries for the “fixed dose” period prior to the endpoint assessment defined as average complete stool frequency increase by 1 or more over baseline, or 3 or more complete spontaneous stools/week. The subject was deemed a “success” if s/he met one or more of the criteria listed above, otherwise the subject was deemed a “failure”. The primary analysis was based on all subjects with a baseline assessment and an assessment at the end of the “fixed-dose” period and was a comparison of the proportion of successes with 0.10 (the null hypothesis corresponding to no treatment effect).

[8] = system: patients with PD and constipation; assay: Adverse events, Stage 1; format: in vivo, human; settings: Stage 1, 10 dosed
Description: Tolerability limits included diarrhea or vomiting.

Structure (SMILES): CC(C)[C@@H](CC[C@@H](C)[C@H]1CC[C@H]2[C@@H]3[C@H](O)C[C@H]4C[C@@H](NCCCNCCCCN)CC[C@]4(C)[C@H]3CC[C@]12C)OS(=O)(=O)O [squalamine]
- clearance and excretion [1]: cleared by the liver and excreted as the intact molecule
- systemic absorption following oral administration [2]: not significantly absorbed into the systemic circulation
- gastro-intestinal motility (mouse models of PD): stimulates gastro-intestinal motility
- effect on IPANs [3]: excitation of IPANs

Structure (SMILES): CC(C)[C@@H](CC[C@@H](C)[C@H]1CC[C@H]2[C@@H]3[C@H](O)C[C@H]4C[C@@H](NCCCNCCCCN)CC[C@]4(C)[C@H]3CC[C@]12C)OS(=O)(=O)O (single isomer, unassigned) [squalamine (ENT-01), squalamine]
- patients who withdrew during dosing because of diarrhea [4]: 2
- circadian rhythm of wrist skin temperature (IS, IV, RA, CFI) (patients with PD [5]): significant positive impact
- circadian rhythm of wrist skin temperature (IS, IV, RA, CFI) (patients with PD [5]; listed as ENT-01): improved all markers of healthy circadian function
- circadian rhythm parameters (IS, CFI) (patients with PD [5]; wash-out period vs baseline): improvement persisted for several of these circadian parameters
- patients in whom hallucinations and delusions improved or disappeared (patients with PD [6]): 5 of 6
- response rate (CSBM within 24 hours of dosing on at least 2 of 3 days) ([7]; Stage 2, daily dosing, at 250 mg (range 75-250 mg)): 85%
- SBM, weekly average ([7]; Stage 2, fixed dose, mean (SD), n = 34, baseline 2.6 (1.45)): 4.5 (2.21) /week
- Abdominal pain, Mild [8]: 2 (20) n
- Abdominal pain, Moderate [8]: 3 (30) n
- Blood in urine, Moderate [8]: 0 n
- Diarrhea, Mild [8]: 1 (10) n
- Diarrhea, Moderate [8]: 3 (30) n
- Diarrhea, Severe [8]: 0 n
- Difficulty falling asleep, Mild [8]: 0 n
- Difficulty falling asleep, Moderate [8]: 0 n
- Dizziness, Mild [8]: 0 n
- Dizziness, Moderate [8]: 0 n
- Eye infection, Mild [8]: 0 n
- Eye infection, Moderate [8]: 0 n
- Flatulence, Mild [8]: 2 (20) n
- Flatulence, Moderate [8]: 0 n
- Headache, Mild [8]: 1 (10) n
- Headache, Moderate [8]: 0 n
- Increased urinary frequency, Mild [8]: 0 n
- Increased urinary frequency, Moderate [8]: 0 n
- Loss of appetite, Moderate [8]: 0 n
- Lower GI bleed, Severe [8]: 0 n
- Nausea, Mild [8]: 4 (40) n
- Nausea, Moderate [8]: 0 n
- Skin lesions-rash, Mild [8]: 0 n
- Skin lesions-rash, Moderate [8]: 0 n
- Urinary retention, Mild [8]: 0 n
- Urinary retention, Moderate [8]: 0 n
- Urinary tract infection, Mild [8]: 0 n
- Urinary tract infection, Moderate [8]: 0 n
- Vomiting, Mild [8]: 1 (10) n
- Vomiting, Moderate [8]: 0 n
- Worsening acid reflux, Mild [8]: 0 n
- Worsening acid reflux, Moderate [8]: 0 n
- Worsening hemorrhoid, Mild [8]: 0 n
- Worsening hemorrhoid, Moderate [8]: 0 n
- Blood in urine, Mild ([8]; unrelated to ENT-01): 1 (10) n
- Loss of appetite, Mild ([8]; unrelated to ENT-01): 1 (10) n

Reference: US20200038419A1, “METHODS OF TREATING MULTIPLE SYSTEM ATROPHY USING AMINOSTEROL COMPOSITIONS” (Enterin, Inc., priority 2018, published 2020)
